Laboratory results reported in patent publication US20230017045A1, “PYRIDINE AND PYRIMIDINE CARBOXYLATE HERBICIDES AND METHODS OF USE THEREOF” (Dow AgroSciences LLC, priority 2017, published 2023).
Like-named read-outs stand apart in the source and are kept apart here.

System: test plant species
Assay: Post-emergent herbicidal activity test (greenhouse, foliar spray, visual growth reduction)
Type: in vivo
Conditions: post-emergence, 336 h, 140 g ai/ha
Procedure, shortened: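 Seedlings were raised 7-21 d in a greenhouse under a 15 h photoperiod until the first or second true leaf. Each compound, dissolved in acetone:DMSO 97:3 and diluted into a surfactant-containing spray mixture, was then applied at 187 L/ha. Plants were subirrigated, and growth reduction was scored visually at 14 d.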

[1] = ECHCG: barnyardgrass (Echinochloa crus-galli), 14 days after application, read-out: Visual Growth Reduction (%) 14 Days After Application, ECHCG
[2] = IPOHE: ivy-leaf morning glory (Ipomoea hederacea), 14 days after application, read-out: Visual Growth Reduction (%) 14 Days After Application, IPOHE
[3] = KCHSC: kochia (Bassia scoparia), 14 days after application, read-out: Visual Growth Reduction (%) 14 Days After Application, KCHSC
[4] = ORYSA: rice (Oryza sativa), 14 days after application, read-out: Visual Growth Reduction (%) 14 Days After Application, ORYSA
[5] = SETFA: giant foxtail (Setaria faberi), 14 days after application, read-out: Visual Growth Reduction (%) 14 Days After Application, SETFA
[6] = SORVU: grain sorghum (Sorghum vulgare), 14 days after application, read-out: Visual Growth Reduction (%) 14 Days After Application, SORVU
[7] = STEME: common chickweed (Stellaria media), 14 days after application, read-out: Visual Growth Reduction (%) 14 Days After Application, STEME
[8] = TRZAS: wheat, spring (Triticum aestivum), 14 days after application, read-out: Visual Growth Reduction (%) 14 Days After Application, TRZAS
[9] = blackgrass (Alopecurus myosuroides), 14 Days After Application, read-out: Visual Growth Reduction (%) ALOMY
[10] = canada thistle (Cirsium arvense), 14 Days After Application, read-out: Visual Growth Reduction (%) CIRAR
[11] = crabgrass (Digitaria sanguinalis), 14 Days After Application, read-out: Visual Growth Reduction (%) DIGSA
[12] = lambsquarters (Chenopodium album), 14 Days After Application, read-out: Visual Growth Reduction (%) CHEAL
[13] = redroot pigweed (Amaranthus retroflexus), 14 Days After Application, read-out: Visual Growth Reduction (%) AMARE
[14] = wild oat (Avena fatua), 14 Days After Application, read-out: Visual Growth Reduction (%) AVEFA
[15] = yellow nutsedge (Cyperus esculentus), 14 Days After Application, read-out: Visual Growth Reduction (%) CYPES
[16] = ALOMY: blackgrass (Alopecurus myosuroides), 14 days after application, read-out: Visual Growth Reduction (%) 14 Days After Application, ALOMY
[17] = AMARE: redroot pigweed (Amaranthus retroflexus), 14 days after application, read-out: Visual Growth Reduction (%) 14 Days After Application, AMARE
[18] = AVEFA: wild oat (Avena fatua), 14 days after application, read-out: Visual Growth Reduction (%) 14 Days After Application, AVEFA
[19] = CHEAL: lambsquarters (Chenopodium album), 14 days after application, read-out: Visual Growth Reduction (%) 14 Days After Application, CHEAL
[20] = CIRAR: canada thistle (Cirsium arvense), 14 days after application, read-out: Visual Growth Reduction (%) 14 Days After Application, CIRAR
[21] = CYPES: yellow nutsedge (Cyperus esculentus), 14 days after application, read-out: Visual Growth Reduction (%) 14 Days After Application, CYPES
[22] = DIGSA: crabgrass (Digitaria sanguinalis), 14 days after application, read-out: Visual Growth Reduction (%) 14 Days After Application, DIGSA

Compound | pest or weed control at 140 g/ha [1] | pest or weed control at 140 g/ha [2] | pest or weed control at 140 g/ha [3] | pest or weed control at 140 g/ha [4] | pest or weed control at 140 g/ha [5] | pest or weed control at 140 g/ha [6] | pest or weed control at 140 g/ha [7] | pest or weed control at 140 g/ha [8] | pest or weed control at 140 g/ha [9] | pest or weed control at 140 g/ha [10] | pest or weed control at 140 g/ha [11] | pest or weed control at 140 g/ha [12] | pest or weed control at 140 g/ha [13] | pest or weed control at 140 g/ha [16] | pest or weed control at 140 g/ha [17] | pest or weed control at 140 g/ha [18] | pest or weed control at 140 g/ha [19] | pest or weed control at 140 g/ha [20] | pest or weed control at 140 g/ha [21] | pest or weed control at 140 g/ha [22] | also measured
COC(=O)c1nc(-c2ccc(I)cc2F)c(F)cc1Cl [F328, methyl 3-chloro-5-fluoro-6-(2-fluoro-4-iodophenyl)picolinate] | 0 to 29% | 85 to 94% | 0 to 29% | 0 to 29% | 30 to 44% | 75 to 84% | 0 to 29% | 0 to 29% | 0 to 29% | 0 to 29% | 75 to 84% | 0 to 29% | 30 to 44% | – | – | – | – | – | – | – | pest or weed control at 140 g/ha [14]: 0 to 29%; pest or weed control at 140 g/ha [15]: 0 to 29%
O=C(O)c1nc(-c2cc3c(cc2Cl)OCO3)c(F)cc1Cl [F196, 3-Chloro-6-(6-chlorobenzo[d][1,3]dioxol-5-yl)-5-fluoropicolinic acid] | 0 to 29% | 95 to 100% | 60 to 74% | 0 to 29% | 0 to 29% | 45 to 59% | 0 to 29% | 0 to 29% | – | – | – | – | – | 0 to 29% | 75 to 84% | 0 to 29% | 85 to 94% | 0 to 29% | 0 to 29% | 0 to 29% | –
COC(=O)c1nc(-c2ccc(Br)cc2Cl)ccc1Cl [F27, Methyl 6-(4-bromo-2-chlorophenyl)-3-chloropicolinate] | 0 to 29% | 85 to 94% | 30 to 44% | 0 to 29% | 0 to 29% | 60 to 74% | 0 to 29% | 0 to 29% | – | – | – | – | – | 0 to 29% | 60 to 74% | 0 to 29% | 45 to 59% | 75 to 84% | 0 to 29% | 60 to 74% | –
COC(=O)c1nc(-c2ncc(Cl)cc2Cl)ccc1Cl [F191, Methyl 3′,5,5′-trichloro-[2,2′-bipyridine]-6-carboxylate] | 75 to 84% | 95 to 100% | 60 to 74% | 0 to 29% | 85 to 94% | 85 to 94% | 0 to 29% | 0 to 29% | – | – | – | – | – | 0 to 29% | 85 to 94% | 0 to 29% | 95 to 100% | 85 to 94% | 45 to 59% | 85 to 94% | –
COC(=O)c1nc(-c2cc(F)c(OC)cc2F)ccc1Cl [F291, Methyl 3-chloro-6-(2,5-difluoro-4-methoxyphenyl) picolinate] | 0 to 29% | 0 to 29% | 0 to 29% | 0 to 29% | 0 to 29% | 0 to 29% | 0 to 29% | 0 to 29% | 0 to 29% | 30 to 44% | 0 to 29% | 45 to 59% | 0 to 29% | – | – | – | – | – | – | – | pest or weed control at 140 g/ha [14]: 0 to 29%; pest or weed control at 140 g/ha [15]: 0 to 29%
O=C(O)c1nc(-c2ccc(Cl)c(F)c2F)ccc1Cl [F70, 3-Chloro-6-(4-chloro-2,3-difluorophenyl) picolinic acid] | 45 to 59% | 85 to 94% | – | 0 to 29% | 30 to 44% | 85 to 94% | 60 to 74% | – | – | – | – | – | – | 0 to 29% | 95 to 100% | 0 to 29% | 95 to 100% | 75 to 84% | 75 to 84% | 60 to 74% | –
COC(=O)c1nc(-c2ccc(C(F)(F)F)cc2)c(F)cc1Cl [F93, Methyl 3-chloro-5-fluoro-6-(4-(trifluoromethyl)phenyl)picolinate] | 0 to 29% | 60 to 74% | 0 to 29% | 0 to 29% | 0 to 29% | 0 to 29% | 0 to 29% | 0 to 29% | – | – | – | – | – | 0 to 29% | 0 to 29% | 0 to 29% | 45 to 59% | 30 to 44% | 0 to 29% | 60 to 74% | –
COC(=O)c1nc(-c2ccc(Cl)c(OC)c2F)cc(Cl)c1Cl [F76, methyl 3,4-dichloro-6-(4-chloro-2-fluoro-3-methoxyphenyl)picolinate] | 0 to 29% | 30 to 44% | – | 0 to 29% | 0 to 29% | 0 to 29% | 0 to 29% | 0 to 29% | – | – | – | – | – | 0 to 29% | 30 to 44% | 0 to 29% | 45 to 59% | 0 to 29% | 30 to 44% | 0 to 29% | –
O=C(O)c1nc(-c2nc(Cl)c(C(F)(F)F)cc2Cl)ccc1Cl [F225, 3′,5,6′-Trichloro-5'-(trifluoromethyl)-[2,2′-bipyridine]-6-carboxylic acid] | 95 to 100% | 95 to 100% | 95 to 100% | 85 to 94% | 95 to 100% | 95 to 100% | 45 to 59% | 75 to 84% | 45 to 59% | 85 to 94% | 95 to 100% | 95 to 100% | 95 to 100% | – | – | – | – | – | – | – | pest or weed control at 140 g/ha [14]: 95 to 100%; pest or weed control at 140 g/ha [15]: 45 to 59%
C#CCOC(=O)c1nc(-c2ccc(C(F)(F)F)cc2Cl)ccc1Cl [F45, prop-2-yn-1-yl 3-chloro-6-(2-chloro-4-(trifluoromethyl)phenyl)picolinate] | 30 to 44% | – | 85 to 94% | 60 to 74% | 85 to 94% | 85 to 94% | 75 to 84% | 85 to 94% | – | – | – | – | – | 30 to 44% | 95 to 100% | 45 to 59% | 95 to 100% | 95 to 100% | 0 to 29% | 95 to 100% | –
